Calls of active or inactive are those of the source. The calls are words filed in the database; no cut-off is given here.
How the values were obtained:
[1] = test system: HCT-116; assay: Antiproliferative activity against human HCT116 cells after 72 hrs by CCK8 assay; assay type: functional, cell-based; conditions: HCT-116, 72 h
[2] = molecular target: Histone deacetylase 1 (Homo sapiens, UniProt Q13547); assay: Inhibition of human recombinant full length HDAC1 using fluorogenic substrate 3 after 30 mins by fluorescence assay
[3] = test system: A549; assay: Antiproliferative activity against human A549 cells after 72 hrs by CCK8 assay; assay type: functional, cell-based; conditions: A549, 72 h
[4] = test system: NCI-H1299; assay: Antiproliferative activity against human NCI-H1299 cells after 72 hrs by CCK8 assay; assay type: functional, cell-based; conditions: NCI-H1299, 72 h
[5] = test system: MCF7; assay: cells; conditions: Homo sapiens, MCF7, 72 h
Description: Antiproliferative activity against human MCF7 cells after 72 hrs by CCK8 assay

[6] = molecular target: E3 ubiquitin-protein ligase Mdm2 (Homo sapiens, UniProt Q00987); assay: Inhibition of MDM2 (unknown origin) preincubated for 30 mins by fluorescence polarization assay
[7] = molecular target: T1, Tumour suppressor p53/oncoprotein Mdm2 (Homo sapiens) (UniProt P04637+Q00987); assay: Inhibition of MDM2/P53 interaction in human A549 cells assessed as increase in p53 expression at 10 uM after 12 hrs by Western blot analysis; assay type: cell-based
[8] = test system: A549; assay: cells; conditions: Homo sapiens, A549, 48 h, read-out: Activity
[9] = test system: A549; assay: animal or person; assay type: functional, Homo sapiens; conditions: Mus musculus, A549, po, read-out: TGI
[10] = test system: A549; assay: cells; conditions: Homo sapiens, A549, 48 h, read-out: Activity; remark: listed apart in the source
[11] = molecular target: T1, Tumour suppressor p53/oncoprotein Mdm2 (Homo sapiens); assay: Inhibition of MDM2/P53 interaction in human A549 cells assessed as increase in MDM2 expression at 5 to 10 uM after 12 hrs by Western blot analysis; assay type: cell-based
[12] = molecular target: T1, Tumour suppressor p53/oncoprotein Mdm2 (Homo sapiens); assay: Inhibition of MDM2/P53 interaction in human A549 cells assessed as increase in p53 expression at 5 to 10 uM after 12 hrs by Western blot analysis; assay type: cell-based

Sequence of Histone deacetylase 1 (Q13547 whole entry): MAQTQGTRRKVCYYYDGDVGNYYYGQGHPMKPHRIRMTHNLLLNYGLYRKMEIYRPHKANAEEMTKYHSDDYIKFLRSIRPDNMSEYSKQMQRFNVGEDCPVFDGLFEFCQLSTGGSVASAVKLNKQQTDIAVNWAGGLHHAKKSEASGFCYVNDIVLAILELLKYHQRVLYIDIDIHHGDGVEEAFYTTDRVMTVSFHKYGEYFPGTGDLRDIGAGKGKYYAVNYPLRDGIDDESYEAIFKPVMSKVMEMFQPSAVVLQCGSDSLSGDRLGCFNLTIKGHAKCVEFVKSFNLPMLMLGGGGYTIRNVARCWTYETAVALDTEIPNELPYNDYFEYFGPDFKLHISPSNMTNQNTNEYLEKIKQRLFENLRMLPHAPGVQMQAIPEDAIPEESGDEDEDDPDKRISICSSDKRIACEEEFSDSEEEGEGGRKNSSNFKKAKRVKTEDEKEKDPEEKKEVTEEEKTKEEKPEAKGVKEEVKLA
T1 sequence (P04637 whole entry, looked up): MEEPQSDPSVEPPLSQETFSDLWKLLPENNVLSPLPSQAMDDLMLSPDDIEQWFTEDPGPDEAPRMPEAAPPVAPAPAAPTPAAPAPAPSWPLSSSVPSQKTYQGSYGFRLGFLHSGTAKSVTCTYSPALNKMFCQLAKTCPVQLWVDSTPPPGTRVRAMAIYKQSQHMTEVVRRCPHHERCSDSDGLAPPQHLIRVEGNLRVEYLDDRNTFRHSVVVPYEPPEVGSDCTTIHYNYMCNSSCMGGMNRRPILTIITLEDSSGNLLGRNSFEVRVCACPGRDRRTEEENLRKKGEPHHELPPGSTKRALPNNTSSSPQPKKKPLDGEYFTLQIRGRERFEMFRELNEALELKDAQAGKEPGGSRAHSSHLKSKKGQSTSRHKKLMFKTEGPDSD
T1 sequence (Q00987 whole entry, looked up): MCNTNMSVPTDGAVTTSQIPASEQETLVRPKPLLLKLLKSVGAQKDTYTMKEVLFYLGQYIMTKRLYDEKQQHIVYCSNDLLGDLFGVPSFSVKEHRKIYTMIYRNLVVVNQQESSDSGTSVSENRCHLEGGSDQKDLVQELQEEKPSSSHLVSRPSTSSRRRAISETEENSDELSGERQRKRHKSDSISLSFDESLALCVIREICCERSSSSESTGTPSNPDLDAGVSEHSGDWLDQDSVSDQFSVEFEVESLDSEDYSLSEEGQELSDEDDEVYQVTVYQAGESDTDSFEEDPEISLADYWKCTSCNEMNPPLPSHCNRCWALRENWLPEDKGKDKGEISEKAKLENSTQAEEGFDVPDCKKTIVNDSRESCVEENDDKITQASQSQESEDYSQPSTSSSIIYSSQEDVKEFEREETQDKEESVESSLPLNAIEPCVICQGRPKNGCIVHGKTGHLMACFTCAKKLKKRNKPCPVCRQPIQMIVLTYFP
Sequence of E3 ubiquitin-protein ligase Mdm2 (Q00987 whole entry): as the sequence (Q00987 whole entry, looked up) above

| SMILES | IC50 [1] [µM] | IC50 [2] [µM] | IC50 [3] [µM] | IC50 [4] [µM] | IC50 [5] [µM] | Ki [6] [µM] | Activity [7] | viability at 1 µM [8] [%] | inhibition in vivo at 100 mg/kg [9] [%] | viability at 5 µM [10] [%] | inhibition [11] | inhibition [12] |
| --- | --- | --- | --- | --- | --- | --- | --- | --- | --- | --- | --- | --- |
| CCOc1cc(C(C)(C)C)ccc1C1=NC(c2ccc(Cl)cc2)C(c2ccc(Cl)cc2)N1C(=O)N1CCC(C(=O)Nc2ccc(/C=C/C(=O)NO)cc2)CC1 (stereo not drawn) | 9.64 | 0.97 | 7.59 | 9.36 | 7.22 | 2.65 | – | – | – | – | – | – |
| CCOc1cc(C(C)(C)C)ccc1C1=NC(c2ccc(Cl)cc2)C(c2ccc(Cl)cc2)N1C(=O)NCCCCCCCC(=O)NO (stereo not drawn) | 5.03 | 0.27 | 4.85 | 9.06 | 7.92 | 0.34 | – | – | – | – | – | – |
| CCOc1cc(C(C)(C)C)ccc1C1=NC(c2ccc(Cl)cc2)C(c2ccc(Cl)cc2)N1C(=O)NCc1ccc(C(=O)NO)cc1 (stereo not drawn) | 9.1 | 3.7 | 7.64 | 7.71 | 13.3 | 0.58 | – | – | – | – | – | – |
| CCOc1cc(C(C)(C)C)ccc1C1=NC(c2ccc(Cl)cc2)C(c2ccc(Cl)cc2)N1C(=O)N1CCC(Nc2ncc(C(=O)NO)cn2)CC1 (stereo not drawn) | 3.24 | 1.01 | 3.11 | 7.91 | 2.68 | 0.46 | – | – | – | – | – | – |
| CCOc1cc(C(C)(C)C)ccc1C1=NC(c2ccc(Cl)cc2)C(c2ccc(Cl)cc2)N1C(=O)N1CCN(CCCCC(=O)NO)CC1 (stereo not drawn) | 5.21 | 0.98 | 3.78 | 12.9 | 9.8 | 0.17 | – | – | – | – | – | – |
| CC(=O)Nc1ccc(C(=O)Nc2ccccc2N)cc1 [TACEDINALINE] | 9.83 | – | 10.2 | 6.79 | 13.2 | – | – | – | – | – | – | – |
| CCOc1cc(C(C)(C)C)ccc1C1=NC(c2ccc(Cl)cc2)C(c2ccc(Cl)cc2)N1C(=O)N1CCC(C(=O)NO)CC1 (stereo not drawn) | 9.3 | 9.72 | 2.99 | 9.87 | 10.1 | 0.057 | – | – | – | – | – | – |
| CCOc1cc(C(C)(C)C)ccc1C1=NC(c2ccc(Cl)cc2)C(c2ccc(Cl)cc2)N1C(=O)NCCCCCC(=O)Nc1ccccc1N (stereo not drawn) | 21.8 | > 20 | 20.3 | 19.1 | > 100 | 1.43 | – | – | – | – | – | – |
| O=C(CCCCCCC(=O)Nc1ccccc1)NO [VORINOSTAT] | – | – | – | 4.92 | – | > 20 | – | – | – | – | – | – |
| CCOc1cc(C(C)(C)C)ccc1C1=NC(c2ccc(Cl)cc2)C(c2ccc(Cl)cc2)N1C(=O)N1CCN(CCCCCCCC(=O)NO)CC1 (stereo not drawn) | 1.71 | 0.41 | 2.01 | 7.76 | 4.83 | 0.29 | – | – | – | – | – | – |
| CCOc1cc(C(C)(C)C)ccc1C1=NC(c2ccc(Cl)cc2)C(c2ccc(Cl)cc2)N1C(=O)N1CCN(c2ncc(C(=O)NO)cn2)CC1 (stereo not drawn) | 0.98 | 0.31 | 1.97 | 5.45 | 3.46 | 1.05 | – | – | – | – | – | – |
| CCOc1cc(C(C)(C)C)ccc1C1=NC(c2ccc(Cl)cc2)C(c2ccc(Cl)cc2)N1C(=O)N1CCN(CC(=O)NO)CC1 (stereo not drawn) | 5.88 | 4.2 | 4.32 | 11.5 | 11.7 | 0.07 | – | – | – | – | – | – |
| CCOc1cc(C(C)(C)C)ccc1C1=N[C@H](c2ccc(Cl)cc2)[C@H](c2ccc(Cl)cc2)N1C(=O)N1CCN(CCCCCCC(=O)NO)CC1 | 10 | 0.91 | 9.02 | – | – | 10.9 | Active | – | – | – | – | – |
| CCOc1cc(C(C)(C)C)ccc1C1=NC(c2ccc(Cl)cc2)C(c2ccc(Cl)cc2)N1C(=O)NCCCCC(=O)Nc1ccccc1N (stereo not drawn) | 13.9 | > 20 | 18.4 | 15.6 | 29.1 | 0.96 | – | – | – | – | – | – |
| CCOc1cc(C(C)(C)C)ccc1C1=NC(c2ccc(Cl)cc2)C(c2ccc(Cl)cc2)N1C(=O)NCCCCCCCC(=O)Nc1ccccc1N (stereo not drawn) | 9.91 | 3.59 | 15.2 | 19.6 | 20.3 | 1.02 | – | – | – | – | – | – |
| CCOc1cc(C(C)(C)C)ccc1C1=NC(c2ccc(Cl)cc2)C(c2ccc(Cl)cc2)N1C(=O)NCCCCCCC(=O)Nc1ccccc1N (stereo not drawn) | 10.1 | 6.07 | 16 | 17.5 | > 100 | 0.62 | – | – | – | – | – | – |
| COc1ccc(C2=N[C@@H](c3ccc(Cl)cc3)[C@@H](c3ccc(Cl)cc3)N2C(=O)N2CCNC(=O)C2)c(OC(C)C)c1 [NUTLIN-3] | 9.07 to 9.97 | > 100 | 9.58 to 11.7 | 19.8 | 8.5 | – | – | 89.8 | 44 | 83.3 | – | – |
| CCOc1cc(C(C)(C)C)ccc1C1=N[C@@H](c2ccc(Cl)cc2)[C@@H](c2ccc(Cl)cc2)N1C(=O)N1CCN(CCCCCCC(=O)NO)CC1 | 1.11 | 0.89 | 0.99 | – | – | 0.06 | – | – | – | – | Active | Active |
| CCOc1cc(C(C)(C)C)ccc1C1=NC(c2ccc(Cl)cc2)C(c2ccc(Cl)cc2)N1C(=O)N1CCN(Cc2ccc(C(=O)NO)cc2)CC1 (stereo not drawn) | 2.03 | 3.51 | 2.17 | 3 | 3.97 | 0.26 | – | – | – | – | – | – |
| CCOc1cc(C(C)(C)C)ccc1C1=NC(c2ccc(Cl)cc2)C(c2ccc(Cl)cc2)N1C(=O)N1CCN(CCCCCC(=O)NO)CC1 (stereo not drawn) | 4.03 | 0.97 | 2.91 | 9.39 | 7.26 | 0.17 | – | – | – | – | – | – |
| CCOc1cc(C(C)(C)C)ccc1C1=NC(c2ccc(Cl)cc2)C(c2ccc(Cl)cc2)N1C(=O)NCCCCCCC(=O)NO (stereo not drawn) | 7.09 | 0.89 | 5.97 | 7.65 | 7.23 | 0.32 | – | – | – | – | – | – |
| CCOc1cc(C(C)(C)C)ccc1C1=NC(c2ccc(Cl)cc2)C(c2ccc(Cl)cc2)N1C(=O)NCCCCC(=O)NO (stereo not drawn) | 10.7 | 2.92 | 9.34 | 16.2 | 12.8 | 0.33 | – | – | – | – | – | – |
| CCOc1cc(C(C)(C)C)ccc1C1=NC(c2ccc(Cl)cc2)C(c2ccc(Cl)cc2)N1C(=O)NCCCCCC(=O)NO (stereo not drawn) | 7.15 | 1.13 | 5.72 | 10.4 | 10.6 | 0.28 | – | – | – | – | – | – |

Reference: ChEMBL document CHEMBL4152341, “Small Molecules Simultaneously Inhibiting p53-Murine Double Minute 2 (MDM2) Interaction and Histone Deacetylases (HDACs): Discovery of Novel Multitargeting Antitumor Agents” (J Med Chem, 2018)
